# Laboratory results published in patent publication US10144715B2, “Piperazine derivatives as liver X receptor modulators” (priority 2014, dated 2018).
# Read-outs that look alike come from different tables or passages of the source.
# Tests used:
# LXR β LBD protein = LXR β LBD protein (Homo sapiens (Human), UniProt P55055); assay: biochemical; type: binding
# LXR α LBD protein = LXR α LBD protein (Homo sapiens (Human), UniProt Q13133); assay: LXR α radioligand binding assay (SPA, competition with [3H]TO901317); settings: read-out: LXRα Binding Ki
# Chain of LXR α LBD protein (Q13133 209-447): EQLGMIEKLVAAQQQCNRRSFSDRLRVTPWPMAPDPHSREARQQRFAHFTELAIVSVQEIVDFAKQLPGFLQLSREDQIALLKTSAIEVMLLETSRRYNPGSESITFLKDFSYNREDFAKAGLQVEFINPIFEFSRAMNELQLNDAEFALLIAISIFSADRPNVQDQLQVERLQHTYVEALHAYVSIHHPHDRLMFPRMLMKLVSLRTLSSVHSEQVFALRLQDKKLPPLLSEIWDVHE
# [1] = target: Gal4 DNA binding domain fused to the LBD of LXRβ in HEK293 cells (Homo sapiens (Human), UniProt P55055); assay: cell-based
# Chain of Gal4 DNA binding domain fused to the LBD of LXRβ in HEK293 cells (P55055 222-460 limits assumed): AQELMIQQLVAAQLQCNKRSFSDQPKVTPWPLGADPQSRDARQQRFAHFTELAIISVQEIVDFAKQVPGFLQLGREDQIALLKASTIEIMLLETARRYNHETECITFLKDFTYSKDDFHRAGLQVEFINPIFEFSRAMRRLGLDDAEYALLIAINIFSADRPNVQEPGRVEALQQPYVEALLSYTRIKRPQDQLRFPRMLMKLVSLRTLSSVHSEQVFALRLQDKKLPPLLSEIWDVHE
# [2] = target: Gal4 DNA binding domain fused to the LBD of LXRα in HEK293 cells (Homo sapiens (Human), UniProt Q13133); assay: LXR luciferase transcriptional reporter gene assay, agonist mode, LXRα; type: cell-based; settings: for EC50: read-out: Cell LXRα EC50
# Chain of Gal4 DNA binding domain fused to the LBD of LXRα in HEK293 cells (Q13133 209-447): as the sequence (Q13133 209-447) above
# [3] = Biological Test Example 1, read-out: LXRβ Binding Ki
# [4] = Biological Test Example 2, agonist mode
# Chain of LXR β LBD protein (P55055 222-460 limits assumed): as the sequence (P55055 222-460 limits assumed) above
SMILES,Ki (LXR β LBD protein; read-out: LXRβ Binding Ki),Ki (LXR α LBD protein),EC50 [1],Cell LXRα efficacy [2],EC50 [2],Cell LXRβ efficacy ([1]; agonist mode),EC50 ([2]; agonist mode),Ki (LXR β LBD protein),Cell LXRβ efficacy [1],"EC50 ([1]; agonist mode, read-out: Cell LXRβ EC50)",Ki (LXR β LBD protein; [3]),"Cell LXRβ efficacy [1, 4]","EC50 ([1]; Biological Test Example 2, agonist mode, read-out: Cell LXRβ EC50)","EC50 [2, 4]"
"CC(C)[C@@H]1CN(c2cccc(S(C)(=O)=O)c2)CCN1c1ccc(C(F)(F)F)c(C2CC2)n1 [40-4, (R)-1-(6-cyclopropyl-5-(trifluoromethyl)pyridin-2-yl)-2-isopropyl-4-(3-(methylsulfonyl)phenyl)piperazine]",0.007 µM,0.014 µM,0.214 µM,1057 (80) %,1.06 µM,–,–,–,–,–,–,–,–,–
"CC(C)[C@H]1CN(c2ccc(C#N)c(S(C)(=O)=O)c2)CCN1Cc1ccc(C(F)(F)F)cc1 [46-9, (S)-4-(3-isopropyl-4-(4-(trifluoromethyl)benzyl)piperazin-1-yl)-2-(methylsulfonyl)benzonitrile]",0.231 µM,> 3.33 µM,1.08 µM,2479 (57) %,–,1078 (49) %,2.48 µM,–,–,–,–,–,–,–
"C[C@@H](c1ccc(C(F)(F)F)cc1)N1CCN(c2cccc(S(C)(=O)=O)c2)C[C@H]1c1ccccc1 [46-17, (R)-4-(3-(methylsulfonyl)phenyl)-2-phenyl-1-((S)-1-(4-(trifluoromethyl)phenyl)ethyl)piperazine]",–,> 3.33 µM,> 20 µM,–,> 20 µM,–,–,> 2.5 µM,–,–,–,–,–,–
"C[C@H](c1ccc(C(F)(F)F)cc1)N1CCN(c2cccc(S(C)(=O)=O)c2)C[C@H]1c1ccccc1 [46-19, (R)-4-(3-(methylsulfonyl)phenyl)-2-phenyl-1-((R)-1-(4-(trifluoromethyl)phenyl)ethyl)piperazine]",–,> 3.33 µM,4.35 µM,–,> 20 µM,–,–,1.9 µM,4348 (6) %,–,–,–,–,–
"C[C@](O)(c1ccc(CN2CCN(c3cccc(S(C)(=O)=O)c3)C[C@H]2c2ccccc2)cc1)C(F)(F)F [46-29, (S)-1,1,1-trifluoro-2-(4-(((R)-4-(3-(methylsulfonyl)phenyl)-2-phenylpiperazin-1-yl)methyl)phenyl)propan-2-ol]",–,6.32 µM,> 20 µM,–,> 20 µM,–,–,1.86 µM,–,–,–,–,–,–
"C[C@@](O)(c1ccc(CN2CCN(c3cccc(S(C)(=O)=O)c3)C[C@@H]2c2ccccc2)cc1)C(F)(F)F [46-31, (R)-1,1,1-trifluoro-2-(4-(((S)-4-(3-(methylsulfonyl)phenyl)-2-phenylpiperazin-1-yl)methyl)phenyl)propan-2-ol]",–,6.56 µM,> 20 µM,–,> 20 µM,–,–,2.17 µM,–,–,–,–,–,–
"CC(C)[C@H]1CN(c2cccc(S(C)(=O)=O)c2)CCN1Cc1ccc(C(F)(F)F)nc1 [46-41, (S)-2-isopropyl-4-(3-(methylsulfonyl)phenyl)-1-((6-(trifluoromethyl)pyridin-3-yl)methyl)piperazine]",0.161 µM,1.31 µM,0.559 µM,2425 (60) %,–,559 (68) %,2.42 µM,–,–,–,–,–,–,–
"CC(C)[C@H]1CN(c2ccc(CO)c(S(C)(=O)=O)c2)CCN1Cc1ccc(C(F)(F)F)cc1 [47-2, (S)-(4-(3-isopropyl-4-(4-(trifluoromethyl)benzyl)piperazin-1-yl)-2-(methylsulfonyl)phenyl)methanol]",0.027 µM,0.119 µM,0.159 µM,455 (70) %,0.455 µM,–,–,–,159 (65) %,–,–,–,–,–
"CC(C)[C@H]1CN(c2ccc(CO)c(S(C)(=O)=O)c2)CCN1Cc1ccc(C(F)(F)F)o1 [47-5, (S)-(4-(3-isopropyl-4-((5-(trifluoromethyl)furan-2-yl)methyl)piperazin-1-yl)-2-(methylsulfonyl)phenyl)methanol]",0.109 µM,1.09 µM,0.248 µM,1187 (62) %,1.19 µM,–,–,–,248 (50) %,–,–,–,–,–
"CC(C)[C@@H]1CN(c2ccc(F)c(S(C)(=O)=O)c2)CCN1C[C@H]1CC[C@@H](C(F)(F)F)CC1 [48-24, (R)-4-(4-fluoro-3-(methylsulfonyl)phenyl)-2-isopropyl-1-(((1s,4S)-4-(trifluoromethyl)cyclohexyl)methyl)piperazine]",0.055 µM,0.765 µM,–,1347 (88) %,1.35 µM,63%,–,–,–,0.563 µM,–,–,–,–
"CC(C)(O)[C@H]1CCC[C@@H](CN2CCN(c3cccc(S(C)(=O)=O)c3)CC2c2ccccc2)C1 (stereo partly drawn) [48-25, 2-((1S,3R)-3-((4-(3-(methylsulfonyl)phenyl)-2-phenylpiperazin-1-yl)methyl)cyclohexyl)propan-2-ol]",–,1.24 µM,> 20 µM,–,> 20 µM,–,–,0.178 µM,–,–,–,–,–,–
"COCc1ccc(N2CCN(C[C@H]3CC[C@H](C(F)(F)F)CC3)[C@@H](c3ccccc3)C2)cc1S(C)(=O)=O [48-49, (S)-4-(4-(methoxymethyl)-3-(methylsulfonyl)phenyl)-2-phenyl-1-(((1r,4S)-4-(trifluoromethyl)cyclohexyl)methyl)piperazine]",–,13.8 µM,–,9842 (9) %,9.84 µM,–,–,–,–,–,1.49 µM,12%,1.35 µM,–
"CC(C)[C@H]1CN(c2cccc(S(C)(=O)=O)c2)CCN1CC1CCOCC1 [51-2, (S)-2-isopropyl-4-(3-(methylsulfonyl)phenyl)-1-((tetrahydro-2H-pyran-4-yl)methyl)piperazine]",–,> 3.33 µM,1.36 µM,–,–,–,–,–,–,–,> 2.5 µM,1362 (7) %,–,> 20 µM
"CC(C)[C@H]1CN(c2cccc(S(C)(=O)=O)c2)CCN1CC1CCC(C)(C)OC1 (stereo partly drawn) [51-3, (2S)-1-((6,6-dimethyltetrahydro-2H-pyran-3-yl)methyl)-2-isopropyl-4-(3-(methylsulfonyl)phenyl)piperazine]",–,3.17 µM,0.59 µM,3460 (51) %,–,–,–,–,–,–,0.482 µM,590 (50) %,–,3.46 µM
"CC(=O)NCc1cnc(N2CCN(c3ccc(F)c(S(C)(=O)=O)c3)C[C@H]2C(C)C)nc1C(F)(F)F [54-2, (R)-N-((2-(4-(4-fluoro-3-(methylsulfonyl)phenyl)-2-isopropylpiperazin-1-yl)-4-(trifluoromethyl)pyrimidin-5-yl)methyl)acetamide]",–,0.863 µM,0.812 µM,3064 (29) %,3.06 µM,–,–,–,–,–,0.081 µM,812 (27) %,–,–
"CC(C)[C@@H]1CN(c2ccc(F)c(S(C)(=O)=O)c2)CCN1c1cnc(C(F)(F)F)cn1 [Cpd No 7-44, (R)-2-(4-(4-fluoro-3-(methylsulfonyl)phenyl)-2-isopropylpiperazin-1-yl)-5-(trifluoromethyl)pyrazine]",0.004 µM,0.043 µM,0.019 µM,120 (97) %,–,–,0.12 µM,–,19 (118) %,–,–,–,–,–
"CC(C)[C@@H]1CN(c2ccc(-c3nc(C#N)cs3)c(S(C)(=O)=O)c2)CCN1c1ncc(CO)c(C(F)(F)F)n1 [Cpd No 11-12, (R)-2-(4-(4-(5-(hydroxymethyl)-4-(trifluoromethyl)pyrimidin-2-yl)-3-isopropylpiperazin-1-yl)-2-(methylsulfonyl)phenyl)thiazole-4-carbonitrile]",0.008 µM,0.194 µM,0.041 µM,488 (67) %,–,41 (73) %,0.488 µM,–,–,–,–,–,–,–
"CC(C)[C@@H]1CN(c2ccc(F)c(S(C)(=O)=O)c2)CCN1c1ncc([C@H](C)O)c(C(F)(F)F)n1 [Cpd No 12-2, (S)-1-(2-((R)-4-(4-fluoro-3-(methylsulfonyl)phenyl)-2-isopropylpiperazin-1-yl)-4-(trifluoromethyl)pyrimidin-5-yl)ethan-1-ol]",–,0.233 µM,0.117 µM,746 (41) %,0.746 µM,117 (36) %,–,0.011 µM,–,–,–,–,–,–
"CC(C)[C@@H]1CN(c2ccc(F)c(S(C)(=O)=O)c2)CCN1c1ncc([C@@H](C)O)c(C(F)(F)F)n1 [Cpd No 12-3, (R)-1-(2-((R)-4-(4-fluoro-3-(methylsulfonyl)phenyl)-2-isopropylpiperazin-1-yl)-4-(trifluoromethyl)pyrimidin-5-yl)ethan-1-ol]",–,0.168 µM,0.084 µM,769 (43) %,0.769 µM,84 (29) %,–,0.006 µM,–,–,–,–,–,–
"CC(=O)c1cnc(N2CCN(c3ccc(F)c(S(C)(=O)=O)c3)C[C@H]2C(C)C)nc1C(F)(F)F [Cpd No 13-1, (R)-1-(2-(4-(4-fluoro-3-(methylsulfonyl)phenyl)-2-isopropylpiperazin-1-yl)-4-(trifluoromethyl)pyrimidin-5-yl)ethan-1-one]",–,0.062 µM,0.049 µM,253 (63) %,0.253 µM,49 (51) %,–,0.003 µM,–,–,–,–,–,–
"CC(C)[C@@H]1CN(c2ccc(F)c(S(C)(=O)=O)c2)CCN1c1cncc(C(F)(F)F)c1 [Cpd No 20-1, (R)-4-(4-fluoro-3-(methylsulfonyl)phenyl)-2-isopropyl-1-(5-(trifluoromethyl)pyridin-3-yl)piperazine]",0.024 µM,0.166 µM,0.141 µM,678 (90) %,0.678 µM,141 (75) %,–,–,–,–,–,–,–,–
"CC(C)Oc1cc(C(F)(F)F)nc(N2CCN(c3ccc(F)c(S(C)(=O)=O)c3)C[C@H]2C(C)C)n1 [Cpd No 23-1, (R)-2-(4-(4-fluoro-3-(methylsulfonyl)phenyl)-2-isopropylpiperazin-1-yl)-4-isopropoxy-6-(trifluoromethyl)pyrimidine]",–,1.18 µM,> 20 µM,–,–,–,> 20 µM,0.212 µM,–,–,–,–,–,–
